Measurements reported in patent US20130065763A1, “Biocide Compositions Comprising Isoamyl Lactate” (priority 2010, published 2013).

Test: Solubility in water of each lactate
Type: physicochemical
Details: for Solubility in Water: solubility of the lactate solvent in water, yes = water soluble
Experimental: Solubility of several pesticides was measured in Isoamyl lactate versus other lactates. In addition the solubility in water of each lactate has been checked.

## CC(C)CCOC(=O)C(C)O (stereo not shown) [Example 6, Isoamyl lactate]
  Solubility in Water: <1%
Statement in description
  Water solubility: not water soluble

## CCCCOC(=O)C(C)O (stereo not shown) [Example C3, Butyl lactate]
  Solubility in Water: yes

## CC(C)OC(=O)C(C)O (stereo not shown) [Example C4, Isopropyl lactate]
  Solubility in Water: yes
